From the supplement of paper PMC10307832

How the values were obtained:
Assay in all cases: relative viability (nuclei count vs DMSO), 5 days (fraction); higher = more cells survive
AZ628 + Pemetrexed = compound: CC1=C(C=C(C=C1)NC(=O)C2=CC(=CC=C2)C(C)(C)C#N)NC3=CC4=C(C=C3)N=CN(C4=O)C [AZ628] + Nc1nc2[nH]cc(CCc3ccc(C(=O)N[C@@H](CCC(=O)O)C(=O)O)cc3)c2c(=O)[nH]1 [Pemetrexed] (partner 0.2 µM)
Summary of the method: (§1)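 One day after seeding in 1536-well plates, lung cancer cell lines were dosed by pin tool. Dosing was either single-drug or a fixed anchor-drug dose plus five library-drug doses (not always all listed) in √10 steps. After 5 days, nuclei were stained in one fix-and-stain step and counted on 4× images, and relative viability is the nuclei count of treated wells over that of vehicle wells, given as the median of duplicate plates.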

[1] = compound: C[As](C)SC[C@H](NC(=O)CC[C@H](N)C(=O)O)C(=O)NCC(=O)O [Darinaparsin] + N=C(N)NC(=N)NCCc1ccccc1 [Phenformin] (partner 250 µM)
Summary of the method: as §1

Darinaparsin + Olaparib = compound: C[As](C)SC[C@H](NC(=O)CC[C@H](N)C(=O)O)C(=O)NCC(=O)O [Darinaparsin] + O=C(c1cc(Cc2n[nH]c(=O)c3ccccc23)ccc1F)N1CCN(C(=O)C2CC2)CC1 [Olaparib] (partner 8 µM)
Summary of the method: as §1

LCLC-97TM1
relative viability (AZ628 + Pemetrexed; first compound 0.08 µM): 0.246
relative viability (AZ628 + Pemetrexed; first compound 0.253 µM): 0.255
relative viability (AZ628 + Pemetrexed; first compound 0.8 µM): 0.238
relative viability (AZ628 + Pemetrexed; first compound 2.53 µM): 0.229
relative viability (AZ628 + Pemetrexed; first compound 8 µM): 0.121
relative viability ([1]; first compound 0.08 µM): 0.417
relative viability ([1]; first compound 0.8 µM): 0.412
relative viability ([1]; first compound 2.53 µM): 0.444
relative viability ([1]; first compound 8 µM): 0.302
relative viability (Darinaparsin + Olaparib; first compound 0.08 µM): 0.599
relative viability (Darinaparsin + Olaparib; first compound 0.8 µM): 0.303
relative viability (Darinaparsin + Olaparib; first compound 2.53 µM): 0.404
relative viability (Darinaparsin + Olaparib; first compound 8 µM): 0.612
